Measurements taken from patent publication US4147787A, “4,5,6,7-Tetrahydro-thieno[2,3-c]-and [3,2-c]-pyridines, and therapeutic compositions containing the same” (Parcor, priority 1977, dated 1979).

System: rat globules (red corpuscles)
Assay: In vitro anti-sludge activity, curative procedure (protamine sulfate)
Format: cell-based
Settings: 25 μg
Protocol: Said activity was investigated in vitro and in vivo in rats.
Thrice washed rat globules are diluted to 1/250 in physiological saline. In each of 5 tubes are placed 0.6 ml of this suspension and 0.2 ml physiological saline. To each tube is then added 0-25-50-100 and 200 μg, respectively, of the test derivative contained in 0.2 ml solution. After incubation for one hour at 37° C., 0.2 ml of a solution containing 125 μg/ml protamine sulfate are added, after which the tube is then incubated again for 0.5 hour at 37° C. The globules of each tube are then examined with a Mallases cell, and the percent free globules and the percent aggregates formed by 2, 3, 4, 5 etc.. globules is then recorded.
The experiment was repeated according to a "curvative" procedure; the red corpuscles were first contacted with protamine sulfate and, after incubation for 0.5 hour, 0.2 ml containing 25 μg of test derivative were added thereto, which operation is followed by another incubation for one hour at 37° C. The results obtained are reported in Table III, in which the percent agglomerates as a function of size is indicated.

| Structure (SMILES) | percent agglomerates, size 2 [%] | percent agglomerates, size 3 [%] | percent agglomerates, size 4 [%] | percent agglomerates, size 5 [%] | percent agglomerates, size 6 [%] | percent agglomerates, size 7 [%] | percent agglomerates, size 8 [%] | percent agglomerates, size 9 [%] | percent agglomerates, size 10 [%] | percent free red corpuscles (size of agglomerates 1) [%] |
| --- | --- | --- | --- | --- | --- | --- | --- | --- | --- | --- |
| O=C(OCc1ccccc1)[C@H]1[C@@H](O)c2sccc2CN1Cc1ccccc1 (relative stereo) [Example 7, 5-Benzyl-6-benzyloxycarbonyl-7-hydroxy-4,5,6,7-tetrahydro-thieno[3,2-c]pyridine] | 12 | 3 | 1 | 0 | 0 | 0 | 0 | 0 | 0 | 84 |
| O=C(OCc1ccc([N+](=O)[O-])cc1)C1Cc2sccc2CN1Cc1ccc([N+](=O)[O-])cc1 (stereo not drawn) [Example 15, 5-p-Nitrobenzyl-6-p-nitrobenzyloxycarbonyl-4,5,6,7-tetrahydro-thieno[3,2-c]pyridine] | 11 | 2 | 0 | 0 | 0 | 0 | 0 | 0 | 0 | 87 |
| O=C(O)C1Cc2sc(Cl)cc2CN1Cc1ccccc1 (stereo not drawn) [Example 26, 5-Benzyl-6-carboxy-2-chloro-4,5,6,7-tetrahydro-thieno[3,2-c]pyridine] | 12 | 2 | 0 | 0 | 0 | 0 | 0 | 0 | 0 | 86 |
